The target in the first assay is T1, human cloned 5-HT6 receptors (Homo sapiens, UniProt P50406).
T1 construct: expressed in transfected cells; host or cells: HeLa cells
T1 sequence (P50406 whole entry): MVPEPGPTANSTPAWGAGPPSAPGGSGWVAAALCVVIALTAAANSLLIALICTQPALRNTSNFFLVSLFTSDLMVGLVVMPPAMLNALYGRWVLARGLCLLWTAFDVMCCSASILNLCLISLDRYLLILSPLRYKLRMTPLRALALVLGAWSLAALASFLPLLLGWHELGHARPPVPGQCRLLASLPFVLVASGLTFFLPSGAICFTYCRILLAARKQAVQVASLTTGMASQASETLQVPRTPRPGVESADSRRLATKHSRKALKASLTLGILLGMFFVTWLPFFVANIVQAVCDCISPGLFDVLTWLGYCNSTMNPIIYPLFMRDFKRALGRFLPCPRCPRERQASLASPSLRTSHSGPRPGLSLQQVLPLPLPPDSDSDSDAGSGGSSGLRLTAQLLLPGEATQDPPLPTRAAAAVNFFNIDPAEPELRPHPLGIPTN
The assay is classed as binding. The conditions noted are these: [3H]-LSD 3.0 nM, Hela cell membranes; read-out: 5-HT6 Binding Ki. The procedure: This operation is repeated.
The reaction is allowed to proceed in the dark for 120 min at room temperature, at which time, the bound ligand-receptor complex is filtered off on a 96 well unifilter with a Packard Filtermate® 196 Harvester. The bound complex caught on the filter disk is allowed to air dry and the radioactivity is measured in a Packard TopCount® equipped with six photomultiplier detectors, after the addition of 40.0 μl Microscint®-20 scintillant to each shallow well. The unifilter plate is heat-sealed and counted in a PackardTopCount® with a tritium efficiency of 31.0%.
Specific binding to the 5-HT6 receptor is defined as the total radioactivity bound less the amount bound in the presence of 10.0 μM unlabeled methiothepin. Binding in the presence of varying concentrations of test compound is expressed as a percentage of specific binding in the absence of test compound. The results are plotted as logit % bound versus log concentration of test compound. Nonlinear regression analysis of data points with a computer assisted program Prism® yields both the IC50 and the Ki values of test compounds with 95% confidence limits.
The amount of displacement by the test compound is given in percent (%) inhibition and is derived from the following equation: [formula] where B0 is the amount of CPM bound in the presence of the testing agent. NSB represents the CPM bound in the presence of a saturating concentration of a displacer and TB represents the total amount of CPM bound at zero (0) concentration of test compound.
Alternatively, a linear regression line of decline of data points is plotted, from which the IC50 value can be read off and the Ki value determined by solving the following equation: [formula] where L is the concentration of the radioactive ligand used and KD is the dissociation constant of the ligand for the receptor, both expressed in nM.
The term Ki denotes the equilibrium dissociation constant of an inhibitor or competing ligand from its target. As to `CC(=NNC(=N)N)c1cn(C)c2ccc(NS(=O)(=O)c3sc4ccc(Cl)cc4c3C)cc12` [Example 16], the Ki came to 7 nM.

As for `N=C(N)NN=Cc1c(-c2ccc(F)cc2)[nH]c2ccccc12` [Example 52, 2-[2-(4-fluorophenyl)-1H-indol-3-ylmethylene]hydrazinecarboximidamide], the Ki was determined as 29 nM.

Still in this assay, the particulars now being: test compound dose 10 nM; displacement of [3H]-LSD.
One may read the inhibition as the drop in the measured response relative to a control, in per cent. `N=C(N)NN=C1CCCc2[nH]c3ccc(Br)cc3c21` [Example 159, 2-(6-bromo-1,2,3,9-tetrahydro-4H-carbazol-4-ylidene)hydrazinecarboximidamide] gave an inhibition at 0.01 µM of 61.1%.

The assay is the same for the next values; noted with them: test compound dose 100 nM; displacement of [3H]-LSD; read-out: % Inhibition.
Take `CC(C)c1ccc2[nH]c3c(c2c1)C(=NNC(=N)N)CC(c1ccccc1)C3` (stereo not shown) [Example 167, 2-(6-isopropyl-2-phenyl-1,2,3,9-tetrahydro-4H-carbazol-4ylidene)hydrazinecarboximidamide]: the inhibition at 0.1 µM worked out at 35.2%.

In the case of `CC1(C)CC(=NNC(=N)N)c2c([nH]c3ccc(Cl)cc23)C1` [Example 171, 2-(6-chloro-2,2-dimethyl-1,2,3,9-tetrahydro-4H-carbazol-4-ylidene)hydrazinecarboximidamide], the inhibition at 0.1 µM came out at 30.7%.

The assay is the same for the next values; noted with them: test compound dose 1000 nM; displacement of [3H]-LSD.
As for `CC(=NNC(=N)N)c1cn(C)c2ccc(NS(=O)(=O)c3sc4ccc(Cl)cc4c3C)cc12` [Example 16], the inhibition at 1 µM was found to be 98.7%.

`N=C(N)NN=Cc1c(-c2ccccc2)n(-c2ccccc2)c2ccccc12` [Example 91, 2-[(1,2-diphenyl-1H-indol-3-yl)-methylene]hydrazinecarboximidamide] came in with an inhibition at 1 µM of 24%.

Broadly, the % Inhibition is how much of the control response was suppressed. Low readings indicate little suppression, high ones strong suppression. With `Cc1ccc(Cn2c(-c3ccc(Cl)cc3)c(C=NN(C)C3=NCCN3)c3ccccc32)cc1` [Example 99, N-{[2-(4-chloro-phenyl)-1-(4-methyl-benzyl)-1H-indol-3-yl]-methylene}-N′-(4,5-dihydro-1H-imidazol-2-yl)-N-methylhydrazine], the “% Inhibition” value came out at 5.7%.

In turn, `CC(C)C(=NNC(=N)N)c1c(-c2ccccc2)n(-c2ccccc2)c2ccccc12` [Example 82, 2-[1-(1,2-diphenyl-1H-indol-3-yl)-2-methyl-propylidene]hydrazinecarboximidamide] displayed an inhibition at 1 µM of 21.5%.

In turn, `CN(N=Cc1c(-c2ccc(F)c(Cl)c2)[nH]c2ccccc12)C1=NCCN1` [Example 49, N′-[2-(3-chloro-4-fluoro-phenyl)-1H-indol-3-ylmethylene]-N-(4,5-dihydro-1H-imidazol-2-yl)-N-methylhydrazine] yielded an inhibition at 1 µM of 93.8%.

With `CN(N=Cc1c(-c2ccc(Cl)cc2)n(Cc2ccccc2Cl)c2ccccc12)C1=NCCN1` [Example 97, N-{[1-(2-chloro-benzyl)-2-(4-chloro-phenyl)-1H-indol-3-yl]-methylene}-N′-(4,5-dihydro-1H-imidazol-2-yl)-N-methylhydrazine], the “% Inhibition” value worked out at 0.4%.

As to `CN(N=C1CCCc2[nH]c3ccc(Br)cc3c21)C1=NCCN1` [Example 160, 6-bromo-1,2,3,9-tetrahydro-4H-carbazol-4-one 4,5-dihydro-1H-imidazol-2-yl(methyl)hydrazone], at 1 µM the inhibition was 76%.

Compound `CN(N=C1CCCc2[nH]c3ccc(Cl)cc3c21)C1=NCCN1` [Example 154, 6-chloro-1,2,3,9-tetrahydro-4H-carbazol-4-one 4,5-dihydro-1H-imidazol-2-yl(methyl)hydrazone] yielded an inhibition at 1 µM of 87.1%.

The compound `CC(C)=CC(=NN(C)C1=NCCN1)c1c(-c2ccccc2)[nH]c2ccccc12` [Example 68, N-(4,5-dihydro-1H-imidazol-2-yl)-N-methyl-N′-[3-methyl-1-(2-phenyl-1H-indol-3-yl)-but-2-enylidene]hydrazine] registered an inhibition at 1 µM of 24.8%.

`CN(N=Cc1c(-c2ccccc2)n(-c2ccccc2)c2ccccc12)C1=NCCN1` [Example 92, N-(4,5-dihydro-1H-imidazol-2-yl)-N′-[(1,2-diphenyl-1H-indol-3-yl)-methylene]-N-methylhydrazine] displayed an inhibition at 1 µM of 17.8%.

`Cc1nc(Cn2c(-c3ccc(Cl)cc3)c(C=NNC(=N)N)c3ccccc32)cs1` [Example 101, 2-({2-(4-chlorophenyl)-1-[(2-methyl-1,3-thiazol-4-yl)methyl]-1H-indol-3-yl}methylidene)-1hydrazinecarboximidamide]: the inhibition at 1 µM is 24%.

The values are drawn from patent publication US6951881B2, “(1-substituted-indol-3-yl) alkylidenehydrazinecarboximidamide derivatives as 5-hydroxytryptamine-6 ligands” (Wyeth, priority 2002, dated 2005).
